Patent publication US20240150423A1, “GLP-1 ANALOGUE-MODIFIED DIMERS WITH DIFFERENT CONFIGURATIONS, PREPARATION METHOD THEREOF, AND APPLICATION THEREOF IN TREATMENT OF TYPE II DIABETES” (Nanjing Finepeptide Biopharmaceutical Co.,Ltd, priority 2019, published 2024)
Positions of bridges follow the written chain, without caps; N, C: chain ends. Non-standard residues stand in square brackets, D forms with d. Chains are numbered I, II in the order given. No end group written: not given here. bAib = not defined here; βAla = NCCC(=O)O

test system: Normal Kunming (KM) mice; experiment: multiple OGTT (mOGTT): hypoglycemic duration after a single administration; type: in vivo; details: monomeric peptides, single injection at the same dose (1.126 nmol), subcutaneous
From the text: • 1. Methods: Normal Kunming (KM) mice (purchased from Guangdong Animal Center) were used for oral glucose tolerance test (OGTT) to obtain the hypoglycemic activity and durability of drug. […] The blood glucose meter and blood glucose test paper were from Bayer […]. The average blood glucose of each group was used as an evaluation standard: When the average blood glucose of experimental group was higher than that of the NaCl control group for two times, the measurement stopped and the hypoglycemic period compared to the blank control group was the effective duration. • 2. Results • 2.1 single OGTTs: after a single administration, the mice were orally administered glucose once and measured the blood glucose from the tail blood at 0, 10, 20, 40, 60 and 120 min. […] The duration of each monomer group was about 1⁄2-1⁄4 of the duration of its corresponding dimer group. […] Therefore, the 2G3 peptide was selected for treating type II diabetes (T2D) in vivo and subsequent experiments.

Compared with “His-βAla-Glu-Gly-Thr-Phe-Thr-Cys-Asp-Val-Ser-Ser-Tyr-Leu-Glu-Gly-Gln-Ala-Ala-Lys-Glu-Phe-Ile-Ala-Trp-Leu-Val-Arg-βAla-Arg-NH2 (H[βAla]EGTFTCDVSSYLEGQAAKEFIAWLVR[βAla]R-NH2; not fully specified; printed as His-βAla-Glu-Gly-Thr-Phe-Thr-Cys-Asp-Val-Ser-Ser-Tyr-Leu-Glu-Gly-Gln-Ala-Ala-Lys-Glu-Phe-Ile-Ala-Trp-Leu-Val-Arg-βAla-Arg-NH2) [G8 series 69]”, “His-aAib-Glu-Gly-Thr-Phe-Thr-Ser-Asp-Val-Cys-Ser-Tyr-Leu-Glu-Gly-Gln-Ala-Ala-Lys[N-ϵ-(N-α-oleoyl-L-γ-glutamyl)]-Glu-Phe-Ile-Ala-Trp-Leu-Val-Arg-Gly-Arg-Gly-OH (HXEGTFTSDVCSYLEGQAAXEFIAWLVRGRG; αAib; oleoyl-γ-glutamyl on Lys; C-terminal acid; Sequence is synthesized; (2)..(2) Xaa is aAib; (20)..(20) Xaa is 26Lys[N-e-(N-a-oleoyl-L-g-glutamyl)]; (31)..(31) C-terminal) [G2 series 14]” is higher in “Hypoglycemic” value: 2 days for the first, 4 days for the second.

“His-Ala-Glu-Gly-Thr-Phe-Thr-Cys-Asp-Val-Ser-Ser-Tyr-Leu-Glu-Gly-Gln-Ala-Ala-Lys[N-ϵ-(N-α-Palmitoyl-L-γ-glutamyl)]-Glu-Phe-Ile-Ala-Trp-Leu-Val-Arg-Gly-Arg-Gly-NH2 (HAEGTFTCDVSSYLEGQAAXEFIAWLVRGRG; palmitoyl-gamma-Glu on Lys; C-terminal amide; Sequence is synthesized; (20)..(20) Xaa is 26Lys[N-e-(N-a-palmitoyl-L-g-glutamyl)]; (31)..(31) N-terminal) [G8 series 57]” and “His-aAib-Glu-Gly-Thr-Phe-Thr-Cys-Asp-Val-Ser-Ser-Tyr-Leu-Glu-Gly-Gln-Ala-Ala-Lys[N-ϵ-(N-α-oleoyl-L-γ-glutamyl)]-Glu-Phe-Ile-Ala-Trp-Leu-Val-Arg-Gly-Arg-Gly-OH (HXEGTFTCDVSSYLEGQAAXEFIAWLVRGRG; Aib; oleoyl-gamma-Glu on Lys; C-terminal acid; Sequence is synthesized; (2)..(2) Xaa is aAib; (20)..(20) Xaa is 26Lys[N-e-(N-a-oleoyl-L-g-glutamyl)]; (31)..(31) C-terminal) [G8 series 63]” are the same in “Hypoglycemic” value: 2 days for the first, 2 days for the second.

First: His-βAla-Glu-Gly-Thr-Phe-Thr-Ser-Asp-Val-Ser-Cys-Tyr-Leu-Glu-Gly-Gln-Ala-Ala-Lys-Glu-Phe-Ile-Ala-Trp-Leu-Val-Arg-βAla-Arg-NH2 (H[βAla]EGTFTSDVSCYLEGQAAKEFIAWLVR[βAla]R-NH2; also: disulfide-linked homodimer via Cys12) [G7 series 55]
Second: His-Ala-Glu-Gly-Thr-Phe-Thr-Ser-Asp-Val-Cys-Ser-Tyr-Leu-Glu-Gly-Gln-Ala-Ala-Lys[N-ϵ-(N-α-oleoyl)]-Glu-Phe-Ile-Ala-Trp-Leu-Val-Arg-Gly-Arg-Gly-NH2 (HAEGTFTSDVCSYLEGQAAXEFIAWLVRGRG; oleoyl on Lys; C-terminal amide; Sequence is synthesized; (20)..(20) Xaa is 26Lys[N-e-(N-a-oleoyl-L-g-glutamyl)]; (31)..(31) N-terminal) [G4 series 27]
The “Hypoglycemic” value of the first is lower: 2 days for the first, 6 days for the second.

Going from “His-βAla-Glu-Gly-Thr-Phe-Thr-Ser-Asp-Val-Ser-Cys-Tyr-Leu-Glu-Gly-Gln-Ala-Ala-Lys[N-ϵ-(N-α-oleoyl-L-γ-glutamy)]-Glu-Phe-Ile-Ala-Trp-Leu-Val-Arg-Gly-Arg-Gly-NH2 (HXEGTFTSDVSCYLEGQAAXEFIAWLVRGRG; beta-amino acid; oleoyl-gamma-Glu on Lys; C-terminal amide; Sequence is synthesized; (2)..(2) Xaa is bAla; (20)..(20) Xaa is 26Lys[N-e-(N-a-oleoyl-L-g-glutamyl)]; (31)..(31) N-terminal) [G6 series 50]” to “His-βAib-Glu-Gly-Thr-Phe-Thr-Ser-Asp-Val-Cys-Ser-Tyr-Leu-Glu-Gly-Gln-Ala-Ala-Lys[N-ϵ-(N-α-oleoyl-L-γ-glutamyl)]-Glu-Phe-Ile-Ala-Trp-Leu-Val-Arg-Gly-Arg-Gly-NH2 (HXEGTFTSDVCSYLEGQAAXEFIAWLVRGRG; βAib; oleoyl-γ-glutamyl on Lys; C-terminal amide; Sequence is synthesized; (2)..(2) Xaa is bAib; (20)..(20) Xaa is 26Lys[N-e-(N-a-oleoyl-L-g-glutamyl)]; (31)..(31) N-terminal) [G2 series 15]”, the “Hypoglycemic” value rises from 4 days to 5 days.

First: His-βAib-Glu-Gly-Thr-Phe-Thr-Ser-Asp-Val-Ser-Cys-Tyr-Leu-Glu-Gly-Gln-Ala-Ala-Lys[N-ϵ-(N-α-oleoyl-L-γ-glutamyl)]-Glu-Phe-Ile-Ala-Trp-Leu-Val-Arg-Gly-Arg-Gly-NH2 (HXEGTFTSDVSCYLEGQAAXEFIAWLVRGRG; not fully specified; beta-Aib; oleoyl-gamma-Glu on Lys; C-terminal amide; Sequence is synthesized; (2)..(2) Xaa is bAib; (20)..(20) Xaa is 26Lys[N-e-(N-a-oleoyl-L-g-glutamyl)]; (31)..(31) N-terminal) [G6 series 49]
Second: His-aAib-Glu-Gly-Thr-Phe-Thr-Ser-Asp-Val-Cys-Ser-Tyr-Leu-Glu-Gly-Gln-Ala-Ala-Lys[N-ϵ-(N-α-oleoyl-L-γ-glutamyl)]-Glu-Phe-Ile-Ala-Trp-Leu-Val-Arg-Gly-Arg-Gly-NH2 (HXEGTFTSDVCSYLEGQAAXEFIAWLVRGRG; αAib; oleoyl-γ-glutamyl on Lys; C-terminal amide; Sequence is synthesized; (2)..(2) Xaa is aAib; (20)..(20) Xaa is 26Lys[N-e-(N-a-oleoyl-L-g-glutamyl)]; (31)..(31) N-terminal) [G2 series 13]
The “Hypoglycemic” value of the first is lower: 5 days for the first, 7 days for the second.

With “His-βAib-Glu-Gly-Thr-Phe-Thr-Cys-Asp-Val-Ser-Ser-Tyr-Leu-Glu-Gly-Gln-Ala-Ala-Lys[N-ϵ-(N-α-oleoyl-L-γ-glutamyl)]-Glu-Phe-Ile-Ala-Trp-Leu-Val-Arg-Gly-Arg-Gly-NH2 (HXEGTFTCDVSSYLEGQAAXEFIAWLVRGRG; beta-Aib; oleoyl-gamma-Glu on Lys; C-terminal amide; Sequence is synthesized; (2)..(2) Xaa is bAib; (20)..(20) Xaa is 26Lys[N-e-(N-a-oleoyl-L-g-glutamyl)]; (31)..(31) N-terminal) [G8 series 66]” the “Hypoglycemic” value was 3 days.

same assay, conditions: single injection at the same dose (1.126 nmol), subcutaneous

Compared with “2G8 series 69: disulfide-linked homodimer of monomer SEQ ID NO: 69 (H[βAla]EGTFTCDVSSYLEGQAAKEFIAWLVR[βAla]R; also: disulfide-linked homodimer)”, “2G4 series 25: disulfide-linked homodimer of monomer SEQ ID NO: 25 (HAEGTFTSDVCSYLEGQAAXEFIAWLVRGRG; not fully specified; disulfide-linked homodimer; Sequence is synthesized; (20)..(20) Xaa is 26Lys[N-e-(N-a-palmitoyl-L-g-glutamyl)]; (31)..(31) N-terminal)” is higher in “Hypoglycemic duration” value: 3 days for the first, 14 days for the second.

Going from “2G2 series 8: disulfide-linked homodimer of monomer SEQ ID NO: 8 (HAEGTFTSDVCSYLEGQAAXEFIAWLVRGRG; not fully specified; disulfide-linked homodimer; Sequence is synthesized; (20)..(20) Xaa is Xaa is 26Lys[N-e-(N-a-Palmitoyl-g-glutamyl)]; (31)..(31) N-terminal)” to “2G4 series 34: disulfide-linked homodimer of monomer SEQ ID NO: 34 (HAEGTFTSDVSCYLEGQAAXEFIAWLVRGRG; not fully specified; disulfide-linked homodimer; Sequence is synthesized; (20)..(20) Xaa is 26Lys[N-e-(N-a-palmitoyl-L-g-glutamyl)]; (31)..(31) C-terminal)”, the “Hypoglycemic duration” value rises from 7 days to 13 days.

Compared with “2G8 series 58: disulfide-linked homodimer of monomer SEQ ID NO: 58 (HAEGTFTCDVSSYLEGQAAXEFIAWLVRGRG; disulfide-linked homodimer; Sequence is synthesized; (20)..(20) Xaa is 26Lys[N-e-(N-a-oleoyl-L-g-glutamyl)]; (31)..(31) C-terminal)”, “2G2 series 17: disulfide-linked homodimer of monomer SEQ ID NO: 17 (chain 1 H[bAib]EGTFTSDVCSYLEGQAAKEFIAWLVK[bAib]R-NH2; chain 2 H[bAib]EGTFTSDVCSYLEGQAAKEFIAWLVK[bAib]R-NH2; disulfide I:11-II:11 (inferred); not fully specified; reading uncertain; also: disulfide-linked homodimer)” is higher in “Hypoglycemic duration” value: 3 days for the first, 4 days for the second.

Compared with “2G2 series 16: disulfide-linked homodimer of monomer SEQ ID NO: 16 (chain 1 H[bAib]EGTFTSDVCSYLEGQAAKEFIAWLVR[bAib]R; chain 2 H[bAib]EGTFTSDVCSYLEGQAAKEFIAWLVR[bAib]R; disulfide I:11-II:11 (inferred); not fully specified; reading uncertain)”, “2G7 series 54: disulfide-linked homodimer of monomer SEQ ID NO: 54 (H[bAib]EGTFTSDVSCYLEGQAAKEFIAWLVR[bAib]R-NH2; reading uncertain; also: disulfide-linked homodimer, disulfide at 12, other end not in the chain, printed as His-βAib-Glu-Gly-Thr-Phe-Thr-Ser-Asp-Val-Ser-Cys-Tyr-Leu-Glu-Gly-Gln-Ala-Ala-Lys-Glu-Phe-Ile-Ala-Trp-Leu-Val-Arg-βAib-Arg-NH2)” is higher in “Hypoglycemic duration” value: 4 days for the first, 5 days for the second.
